Results from a melting point compilation (Tetko et al.; mined from patent text by program, amines drawn as free bases though some values may be those of a salt).

| Compound | melting point |
| --- | --- |
| O=c1[nH]c2cc(Cl)ccc2c(=O)c(-c2ccc([N+](=O)[O-])cc2)c1O | 310 to 312 °C |
| CC(C)(Cc1cc2cc(OCc3ccc4ccccc4n3)ccc2n1Cc1ccc(Cl)cc1)C(=O)O | 193 to 194 °C |
| CN(C)C=Nc1ccc(I)cc1C#N | 53 to 55 °C |
| O=C(NCCc1ccccc1)c1ccc(S(=O)(=O)NC(=O)c2ccc(C(=O)NCCO)nc2)cc1 | 228 to 230 °C |
| CC(C)(C)OC(=O)Nc1c(F)cccc1OCc1ccccc1 | 103 to 106 °C |
| CCOC(=O)c1cc(=O)c(Cl)c(-c2ccccc2)o1 | 103 to 105 °C |
| Cc1ccc(S(=O)(=O)NC(=O)c2cccc(OCc3csc(-c4ccccc4)n3)c2)cc1 | 170 to 172 °C |
| COc1ccc(-c2n[nH]c3c2Cc2ccccc2-3)cc1 | 247 °C |
| CN1C(=S)N(c2ccc(Cl)c(Cl)c2)C(=N)C1(C)C | 133 °C |
| CNC(=O)N1CC(Sc2ccc(Cl)cc2)C1 | 161 to 162 °C |
| C#CCCCOc1c(C)cc(C(=O)O)cc1C | 129 to 130 °C |
| COc1ccc(Nc2cccc3c2C(=O)N(C2CCC(=O)NC2=O)C3=O)c(Oc2ccccc2)c1 (stereo not drawn) | 142 to 144 °C |
| CC(C)(C)OC(=O)NC1CNC(=O)C12CC2 (stereo not drawn) | 178 to 181 °C |
| CCc1cc2c(s1)C(C(=O)O)CC2=O (stereo not drawn) | 128 to 132 °C |
| Cc1cc2c(c3ccc(=O)[nH]c13)OC(CC(=O)[C@@H](C)N)C2 (stereo partly drawn) | 222 to 225 °C |
| CCCCNC(=O)[C@@H](C[C@H](O)[C@H](CC1CCCCC1)NC(=O)[C@H](Cc1cscn1)NC(=O)OC(C)(C)C)C(C)C | 201 to 203 °C |
| CC(C(N)=O)c1ccc(Oc2ccccc2F)cc1 (stereo not drawn) | 106 to 108 °C |
| CCOC(=O)C(C)(C)OC1(CCCNC(=O)c2cc(Cl)ccc2OC)C=CC(c2ccccc2)=CC1 (stereo not drawn) | < 20 °C |
| CS(=O)(=O)c1ccc(-c2cc(/C=C\CCO[N+](=O)[O-])nn2C2CCCCC2)cc1 | 129 to 130 °C |
| COC(=O)N(CC(=O)Nc1ccc(S(N)(=O)=O)cc1)c1ccccc1 | 196 to 199 °C |
| COc1cc(CC(=O)Nc2ccc(C(C)CC(=O)O)cc2)ccc1NC(=O)N1CCc2ccccc21 (stereo not drawn) | 152 to 154 °C |
| C[Si](C)(C)CCSCCCNC(=O)n1cc(F)c(=O)[nH]c1=O | 114 to 115 °C |
| O=[N+]([O-])c1cc(-c2nnn[nH]2)ccc1OCc1ccccc1 | 178 to 180 °C |
| Cc1oc2c(C)c(C)c(NC(=O)c3ccc(F)cc3)c(C)c2c1-c1ccc(F)cc1 | 232 to 234 °C |
| c1ncn(Cc2ccc3c(c2)Cc2c(-c4ccsc4)n[nH]c2-3)n1 | 252 to 257 °C |
| COc1ccc(C(=O)c2cnn(C)c2O)c(Cl)c1N=C1CCCCS1=O (stereo not drawn) | 89 to 91 °C |

| Compound | melting point |
| --- | --- |
| c1nc(Nc2ccc(N3CCOCC3)cc2)cc(NC2CCCCC2)n1 | 239 to 240 °C |
| NC1=NN(c2cccc(F)c2)C(c2ccccc2)C1 (stereo not drawn) | 165 to 166 °C |
| O=C(O)c1cc(OCc2ccccc2)nn1-c1ccccc1 | 163 to 164 °C |
| CNC(=O)NC(Cc1c[nH]c2ccccc12)C(=O)OCc1cc(C)cc(C)c1 (stereo not drawn) | 66 to 68 °C |
| Nc1cccc(Oc2cccc(Oc3cccc(N)c3)c2)c1 | 105 to 107 °C |
| CN(C)Cc1ccc([C@H]2CC[C@H](O)CC2)cc1 | 63 to 65 °C |
| CCOc1ccc(-c2[nH]c(-c3ccc([N+](=O)[O-])cc3)nc2C(=O)O)cc1 | 148 to 152 °C |
| CN(C)Cc1ccc(CSCCNC2=NS(=O)(=O)C(S(C)(=O)=O)=C2N)o1 | 187 to 189 °C |
| Cc1ccc(-c2ccc(C)c(C)n2)cc1 | 76 °C |
| COc1ccc(-c2[nH]cnc2-c2cc(OC)c(O)c(OC)c2)cc1N | 148 to 150 °C |
| COC(=O)Nc1ccc(NC(=O)CN(C)C)c([N+](=O)[O-])c1 | 186 to 189 °C |
| O=[N+]([O-])c1cccnc1Oc1nn(Cc2ccccc2F)c2ncccc12 | 115 to 117 °C |
| Nc1c2c(nc3cc(C(F)(F)F)ccc13)CCSC2 | 253 to 259 °C |
| CCc1cncnc1O | 95 to 97 °C |
| CC(C)N(CCOc1ccc2oc3ccc(OCCN(C(C)C)C(C)C)cc3c2c1)C(C)C | 47 to 49 °C |
| N#CC1=C(COCc2ccccc2)Nc2n[nH]cc2C1c1ccccc1Cl (stereo not drawn) | 165 to 166 °C |
| Cc1ccc(Cn2ccc(OCc3ccccc3)cc2=O)cc1 | 143 °C |
| O=C1OC(=O)c2cc(C#Cc3cccc4ccccc34)ccc21 | 220 to 222 °C |
| CC(C)C[C@H](NC(=O)OC(c1ccccc1)c1ccccc1)C(=O)Oc1c(Cl)c(Cl)c(Cl)c(Cl)c1Cl | 84 to 86 °C |
| CS(=O)(=O)c1ccc(CC(=S)N2CCOCC2)cc1 | 198 to 199 °C |
| COc1ccc2[nH]cc(-c3cc4c(OC)ccnc4[nH]3)c2c1 | 294 to 295 °C |
| CCCCc1nc2c(N)nc3ccccc3c2n1CCOCCN1CCCS1(=O)=O | 152 to 154 °C |
| CN(C)C1Cc2cccc3ccn(c23)C1 (stereo not drawn) | 114 to 115 °C |
| CCNc1cccc(-c2ccnc3c(C(=O)c4cccs4)cnn23)c1 | 154 to 155 °C |
| N#Cc1ccc2oc(-c3cccc(O)c3)cc2c1 | 222 to 224 °C |
| CCC(CNC(=O)c1cc(C#N)c(Cl)cc1OC)NC(C)C (stereo not drawn) | 103 to 105 °C |

| Compound | melting point |
| --- | --- |
| CCn1cnc2c(Nc3cccc(F)c3)nc(Cl)nc21 | 136 °C |
| CCCC(=O)Nc1c(C)c(C)c2c(c1C)CC(C)(C)O2 | 136 to 138 °C |
| C=CCOc1ccc(-c2cc(C(=O)NCc3ccc(OC(C)(C)C(=O)O)c(C)c3)nn2C)cc1 | 138 °C |
| C=C(CN(C)C)C(O)c1ncc2c(c1O)COC2c1cccc(Cl)c1Cl (stereo not drawn) | 180 to 184 °C |
| CCOC(=O)c1nn(-c2ccccc2C)c(=O)c2c(N)scc12 | 209 to 210 °C |
| O=C(NCC12CC3CC(CC(C3)C1)C2)c1cc(-c2cccnc2N2CCC(C(=O)O)CC2)ccc1Cl | 110 to 115 °C |
| O=C(c1ccc(C2CCCCC2)cc1)N1Cc2cccn2Cc2ncccc21 | 150 to 152 °C |
| Cc1ccc(COC2C(Sc3ccccc3)OC(C)C(OC(=O)c3ccccc3)C2OC(=O)c2ccccc2)cc1 (stereo not drawn) | 81 to 83 °C |
| COc1cccc([C@H]2O[C@H](CC(=O)Nc3cc(C(=O)O)ccc3F)C(=O)N(CC(C)(C)COC(C)=O)c3ccc(Cl)cc32)c1OC | 146 to 149 °C |
| Cn1ncnc1-n1cc(C(=O)O)c(=O)c2cc(F)c(Cl)nc21 | 238 to 242 °C |
| c1ccc2c3c([nH]c2c1)CNCC3 | 190 to 191 °C |
| COC(=O)c1cc2c3cc([N+](=O)[O-])ccc3n(C)c2s1 | 269 to 271 °C |
| COC(=O)C(C#N)=CC=Cc1cc([N+](=O)[O-])ccc1Cl | 193 to 194 °C |
| O=C1CC2(CCc3cc4ccccc4n3C2)C(=O)N1 (stereo not drawn) | 208 to 210 °C |
| CC(C)c1c(Sc2cccc(Cl)c2)nc(COC(N)=O)n1C | 145 to 146 °C |
| COc1ccc(CNc2cc(C(=O)Nc3ccccc3)ccc2OC)cc1 | 173 to 174 °C |
| NC(=O)c1c(Cl)cc(Cl)c(CC(=O)O)c1Cl | 211 °C |
| CC(=O)NC(C)Cc1cc2c(cc1CCl)OCO2 (stereo not drawn) | 132 to 133 °C |
| CC(c1c[nH]cn1)c1cccc2c1OC(C)(C)OC2 (stereo not drawn) | 118 °C |
| COc1ccc(N2C(=O)C3Cc4c(ncn4Cc4ccccc4)CN3C2=S)cc1 (stereo not drawn) | 100 to 120 °C |
| O=C(O)CCC(NC(=O)c1ccc(-c2ccccc2OC2OC(CO)C(O)C(O)C2O)cc1)C(=O)O (stereo not drawn) | 118 to 121 °C |
| Cc1nc2ncc(C(=O)NCc3ccc(Cl)cc3)c(O)c2cc1I | 276 to 277 °C |
| Cc1nn(-c2ccccn2)c2nc3ccccc3c(N(C)C)c12 | 98 to 101 °C |
| COC(=O)c1cc(C2(c3ccc(F)c(-c4cncnc4)c3)N=C(N)N(C)C2=O)cn1CCF (stereo not drawn) | 88 to 90 °C |
| CC(=O)NC1(c2ccc(C(C)O)cc2)CC1 (stereo not drawn) | 114 to 116 °C |
| CN1CC2(COc3cc4c(cc32)OCO4)c2c(Br)cccc21 (stereo not drawn) | 155 to 157 °C |

| Compound | melting point |
| --- | --- |
| CNc1nc(-c2ccc(OCCCn3ccnc3)cc2)no1 | 154 to 155 °C |
| CCc1cccc2c3c([nH]c12)C(CC)(CC(=O)OC)OCC3NC=O (stereo not drawn) | 154 to 156 °C |
| CCOC(=O)C(C)O/N=C(\C(=O)O)c1csc(N)n1 (stereo not drawn) | 166 °C |
| NC(=O)CN1CCC1=O | 112 to 113 °C |
| Oc1ccc2nc(CCl)oc2c1 | 148 to 154 °C |
| CCOC(=O)c1[nH]c(Cl)nc1-c1ccccc1 | 128 to 129 °C |
| CCCCCCCNC(=O)N(C)c1cccc(-c2ccc(C=C(C)C(=O)O)cc2)c1 | 79 °C |
| Cc1c(F)c(F)cc2c1c(=O)c(C(=O)O)cn2C1CC1 | 294 to 298 °C |
| O=[N+]([O-])c1cccc(/C=C/c2nc(C3CCCC3)cs2)c1 | 65 to 70 °C |
| CC(C)(C)C#Cc1cc(Cl)cc2c1OC(C(F)(F)F)C(C(=O)O)=C2 (stereo not drawn) | 218 to 222 °C |
| CCc1cnc2c(C#N)cnn2c1-c1cccc(C(F)(F)F)c1 | 135 to 137 °C |
| Cn1c(=O)c2c(nc(N3CCC(N)C3)n2Cc2ccccc2C#N)n(C)c1=O (stereo not drawn) | 186 to 189 °C |
| C=CC(=O)OCCOc1ccc(-c2cccc(F)c2F)cc1 | 47.4 to 50.1 °C |
| N#Cc1cnc2c(sc3c([N+](=O)[O-])cccc32)c1Nc1cccc(Br)c1 | 288 to 290 °C |
| Cc1ccc2oc3ccc(C)cc3c2c1 | 62 to 64 °C |
| CC(C)=NN=C(c1ccc(Cl)cc1)c1ccc(OS(C)(=O)=O)cc1 | 148 to 149 °C |
| O=C(O)C1c2ccccc2N=C(N2CCCCC2)N1c1ccccc1 (stereo not drawn) | 238 °C |
| CCOC(=O)c1ccc(-c2nc(C(=O)OCC)ns2)cc1 | 66 to 67.5 °C |
| O=C(c1ccc(Cl)cc1)c1ccc2[nH]c(=O)cc(-c3cccc(Cl)c3)c2c1 | 235 °C |
| COc1ccc(C2=C(C=O)CCc3cc(OC)ccc32)cc1 | 104 to 105 °C |
| S=C1CN=C(c2ccccc2Cl)c2ccccc2N1 | 228 to 229 °C |
| C[C@H]1C(=O)C[C@@H]2C[C@H]1OO[C@@]2(C)C=O | 92 °C |
| Fc1cc(-c2nc3ccccc3o2)ccc1CBr | 150 to 152 °C |
| CCC(=O)C(C=O)=Cc1cc(O)c(O)c(C#N)c1 | 228 to 232 °C |
| COc1cccc(-n2nc(C)c3ccc([N+](=O)[O-])cc32)c1C#N | 244 °C |
